These results are taken from patent publication US20050112059A1, “Enhancement of radiotherapy by an exogenous cardiac glycoside” (Phoenix Biotechnology, Inc., priority 2003, published 2005).

For series [1], the system named is murine tumor cell lines. The conditions noted are these: cited from earlier work.
The subject of series [2] is caspase-3. Briefly: Caspase-3 activation by western blotting. The format is cell-based, human. The method, then:
To determine whether caspase-3 activation was involved in the oleandrin-induced enhancement of PC-3 cell radioresponse, cells were treated with 5 Gy or 0.05 μg/ml oleandrin or a combination of both treatments for 24 hours. Cells were assayed for caspase-3 activation 24 hours after treatment using western blotting. cells were lysed in a buffer containing 50 mM Tris-HCl (pH 8), 450 mM NaCl, 1% triton X-100, 5 mM EDTA, 1% (v/v) of protease inhibitor cocktail, and 1% (v/v) phosphatase inhibitor cocktails I and II (Sigma, St. Louis, Mo.). Protein ([…] per lane) was separated by sodium dodecyl sulfate-polyacrylamide gel electrophoresis (“SDS-PAGE”) and transferred to a polyvinylidene difluoride (“PVDF”) membrane (Bio-Rad Laboratories, Hercules, Calif.). The membrane was blocked by 5% non-fat dry milk in Tris-buffered saline and 0.1% Tween-20 (“TBS-T”) and before incubation with a designated primary antibody (Pharmingen, San Diego, Calif.). After washing the membrane with TBS-T, it was incubated in secondary antibody and the immunoreaction was visualized using an ECL western blotting kit (Amersham Corp., Arlington Heights, Ill.).
(In general: In western blotting, separated proteins are transferred to a membrane and probed.)

For series [3], the system named is human tumor cell lines. The conditions noted are these: cited from earlier work.
The test system of series [4] is PC-3 cells. Briefly: Colony forming ability of PC-3 cells after oleandrin and graded γ-irradiation. The series is classed as cell-based, human. As to the method:
The human prostate carcinoma cell line PC-3 was obtained from the American Type Culture Collection and maintained in RPMI 1640 medium supplemented with 10% fetal calf serum, 10,000 U/ml of penicillin-streptomycin, and 2 mM L-glutamine. Cells were grown as monolayers in 75-cm^2 flasks and maintained in a humidified 5% CO2/95% air atmosphere at 37.8° C.
[…] graded doses (2, 4 or 6 Gy) of γ-rays using a ^137Cs source (3.7 Gy/min) and assayed for colony forming ability by replating them in specified numbers into 100-mm dishes containing drug-free media. After 12 days of incubation, cells were stained with 0.5% crystal violet in absolute ethanol, and colonies with more than 50 cells were counted. The average survival levels were fit by least squares regression using a linear quadratic model. Survival curves were constructed with normalized values for the cytotoxicity induced by oleandrin alone. Oleandrin by itself reduced plating efficiency from the 95% control value to 21%.
The untreated control samples are represented by the open circles and the oleandrin treated samples are represented by the filled circles. Values shown are the means±SE for three independent experiments. The enhancement factor at the cell survival fraction of 0.1 was 1.32.

The test system of series [5] is PC-3 cells. Briefly: Apoptosis by TUNEL assay and flow cytometry. The format is cell-based, human. The method, then: PC-3 cells were incubated with 0.05 μg/ml oleandrin for 24 hours, irradiated at 2 Gy, or both. The control cells were untreated. The medium containing oleandrin was removed, fresh medium was added, and 24 hours later the apoptotic index was determined.
Apoptosis was determined by staining and flow cytometry analysis. The terminal deoxynucleotidyltransferase (“TdT”) dUTP nick end labeling (“TUNEL”) assay to identify the DNA fragmentation (APO-DIRECT kit, Pharmingen, San Diego, Calif.) was performed according to the manufacturer's instructions. Briefly, cells (2×10^6) were fixed in 1% paraformaldehyde and washed in PBS. Cells were suspended in 70% ethanol and stored at −20° C. until use. Re-suspended cells were stained in a solution containing TdT and FITC-dUTP and incubated overnight at room temperature in the dark. They were then rinsed and re-suspended in 0.5 ml propidium iodide/RNase A solution and analyzed by flow cytometry.

Series [6] concerns NF-kB. The conditions noted are these: cited from earlier work.
For series [7], the system named is PC-3 cells. Briefly: Effect of duration of oleandrin exposure on radiosensitivity (colony survival, 3 Gy). The series is classed as cell-based, human. As to the method: The magnitude of radiosensitization depended on duration of exposure of cells to oleandrin prior to radiation. PC-3 cells were incubated in the presence of 0.05 μg/ml oleandrin for 1-24 hours. After oleandrin treatment, cells were irradiated with 3 Gy radiation and plated as in Example 1. Colonies were counted after 12 days and percent surviving fractions were plotted. […] Cell survival after 3 Gy radiation only was 50% compared to 30% after 3 Gy radiation plus 0.05 μg/ml oleandrin. Values shown are means±SE for three independent experiments. The average survival levels were fit by least squares regression using a linear quadratic model.

Series [8] concerns PC-3 cells. Briefly: Hoechst 33258 staining of apoptotic cells, fluorescent microscope. The format is cell-based, human. To be noted: oleandrin plus radiation versus any other treated or control population. The source says: In addition, the control cells and the experimental cells were stained with a fluorescent dye, Hoechst 33258, that binds to fragmented DNA. The PC-3 cells were observed under a fluorescent microscope.

Series [9] deals with PC-3 cells. Briefly: Clonogenic cell survival with caspase-3 inhibitor, oleandrin and radiation. The series is classed as cell-based, human. To be noted: for Survival of cells (%) following radiation of 2 Gy / Survival of cells (%) following radiation of 6 Gy / Survival of cells (%) following radiation of O Gy: oleandrin 0.05 μg/ml 24 hours, ZDEVD-FMK 100 μM added 2 hours before oleandrin; for Survival of cells (%) following radiation of 2 Gy: control 74.6 ± 3.4; for Survival of cells (%) following radiation of 6 Gy: control 7.8 ± 0.6; for Survival of cells (%) following radiation of O Gy: no radiation, percent control, mean±SE. As to the method: PC-3 cells were incubated with 0.05 μg/ml oleandrin for 24 hours before being irradiated with 2 or 6 Gy. […] Clonogenic cell survival was then determined. Colonies were counted and the survival of cells (percent control) was calculated. Data are presented as mean±SE from three experiments.

Series [10] concerns A549 human lung adenocarcinoma cells. To be noted: cited from earlier work.
In series [11] the test system is normal human lung fibroblasts. The conditions noted are these: cited from earlier work.
The subject of series [12] is human tumor cells including squamous cell carcinoma and melanoma. The conditions noted are these: squamous cell carcinoma and melanoma among types; cited from earlier work.

Consider `CO[C@H]1C[C@H](O[C@H]2CC[C@@]3(C)[C@H](CC[C@@H]4[C@@H]3CC[C@]3(C)[C@@H](C5=CC(=O)OC5)[C@@H](OC(C)=O)C[C@]43O)C2)O[C@@H](C)[C@@H]1O` [Oleandrin, oleandrin], for which, in [1], the induction of apoptosis entry is reported as “not in murine tumor cell lines”. Also, the “activation of caspase-3” value in series [2] (0.05 μg/ml oleandrin alone, 24 hours, assayed 24 hours after treatment) is listed as “effective”. The “level of caspase-3 activation” value in series [2] (0.05 μg/ml oleandrin combined with 5 Gy) was “higher”. The induction of apoptosis entry in [3] is “induces apoptosis”. In series [4] (oleandrin 0.025 μg/ml), the cytotoxicity by itself entry was “non-cytotoxic” and the influence on radiosensitization entry is on record as “no significant influence”. Besides, in [4] (oleandrin 0.05 μg/ml 24 hours, then 2, 4 or 6 Gy γ-rays), the “enhancement factor at the cell survival fraction of 0.1” value worked out at 1.32. The molecule further returned a plating efficiency in series [4] (oleandrin 0.05 μg/ml for 24 hours, by itself (no radiation), control value 95%) of 21%. Also, the “percentage of apoptotic cells” value in series [5] (0.05 μg/ml oleandrin 24 hours alone, measured 24 hours later, control 2.1±0.4) was determined as 63.5±6.1%. Further, the “percentage of apoptotic cells” value in [5] (0.05 μg/ml oleandrin 24 hours plus 2 Gy, 2 Gy alone 8.2±3.4%) stood at 85.8±5.3%. In addition, in [5] (oleandrin 0.05 μg/ml plus 2 Gy), the “combination effect on apoptosis versus individual treatments” value is listed as “more than the additive effects”. Further, the “activation of NF-kB” value in [6] is given as “inhibits activation”. In addition, in series [7] (0.05 μg/ml oleandrin 1-24 hours, 3 Gy), the “radiosensitizing effect versus duration of exposure” value is “increased as the duration of exposure to oleandrin increased up to 24 hours”. The cell survival in series [7] (3 Gy radiation plus 0.05 μg/ml oleandrin, exposure 1 hour, 3 Gy only 50%) stood at 30%. Further, the “apoptotic cells observed (Hoechst 33258)” value in [8] was “More apoptotic cells”. Also, in series [9], the “Survival of cells (%) following radiation of 2 Gy” value stood at 55.5 ± 1.9%, the “Survival of cells (%) following radiation of 6 Gy” value turned out to be 3.1 ± 0.8% and the “Survival of cells (%) following radiation of O Gy” value is 88.9 ± 2.9%.
In the case of `C[C@@H]1O[C@@H](O[C@H]2C[C@@H](O)[C@]3(CO)[C@H]4[C@H](O)C[C@]5(C)[C@@H](C6=CC(=O)OC6)CC[C@]5(O)[C@@H]4CC[C@]3(O)C2)[C@H](O)[C@H](O)[C@H]1O` [Ouabain, ouabain], the in vitro radiosensitivity entry in series [10] was “enhance in vitro radiosensitivity”. Also, the modification of radioresponse entry in series [11] is listed as “ineffective”. The radiosensitization result in series [12] is “radiosensitize”.
ZDEVD-FMK [Z-DEVD-FMK]: in series [9], the “Survival of cells (%) following radiation of 2 Gy” value was 77.8 ± 3.2%, the “Survival of cells (%) following radiation of 6 Gy” value was found to be 8.6 ± 2.1% and the “Survival of cells (%) following radiation of O Gy” value came out at 97.4 ± 1.7%. Moreover, the “effect on oleandrin-induced enhancement of radiation response” value in [9] (ZDEVD-FMK 100 μM with oleandrin 0.05 μg/ml) is “abolished”.
